# Measurements reported in US20090239845A1, “PYRAZOLE COMPOUNDS AS PROSTAGLANDIN RECEPTORS LIGANDS” (priority 2005, published 2009).
# Structures can show the parent of a compound that is named as a salt.
# Molecular target: T1, human EP1 receptor (Homo sapiens, UniProt P34995)
# T1 construct: expressed in transfected cells; host or cells: CHO-K1
# T1 sequence (P34995 1-402): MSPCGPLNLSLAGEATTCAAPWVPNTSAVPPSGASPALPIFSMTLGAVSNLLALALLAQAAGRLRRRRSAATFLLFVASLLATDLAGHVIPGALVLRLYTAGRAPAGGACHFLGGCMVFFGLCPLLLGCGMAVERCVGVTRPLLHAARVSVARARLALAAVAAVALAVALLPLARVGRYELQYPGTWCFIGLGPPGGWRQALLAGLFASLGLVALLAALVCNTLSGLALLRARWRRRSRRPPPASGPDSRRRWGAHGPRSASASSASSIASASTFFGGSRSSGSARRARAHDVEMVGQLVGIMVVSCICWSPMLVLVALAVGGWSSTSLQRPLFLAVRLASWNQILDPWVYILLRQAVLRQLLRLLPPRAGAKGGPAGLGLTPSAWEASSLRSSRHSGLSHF
# Assay: human EP1 calcium mobilisation assay
# Format: cell-based
# Details: negative logarithm10 of the antagonist dissociation constant; CHO-K1 cells, PGE2; free bases or sodium salts; averages of a number of experiments; read-out: functional pKi value (converted)
# Method: Briefly, the antagonist properties of compounds are assessed by their ability to inhibit the mobilisation of intracellular calcium ([Ca^2+]i) in response to activation of EP1 or EP3 receptors by the natural agonist hormone prostaglandin E2 (PGE2). Increasing concentrations of antagonist reduce the amount of calcium that a given concentration of PGE2 can mobilise. The net effect is to displace the PGE2 concentration-effect curve to higher concentrations of PGE2. The amount of calcium produced is assessed using a calcium-sensitive fluorescent dye such as Fluo-4, AM and a suitable instrument such as a Fluorimetric Imaging Plate Reader (FLIPR). Increasing amounts of [Ca^2+]i produced by receptor activation increase the amount of fluorescence produced by the dye and give rise to an increasing signal. The signal may be detected using the FLIPR instrument and the data generated may be analysed with suitable curve-fitting software.
# The human EP1 or EP3 calcium mobilisation assay (hereafter referred to as ‘the calcium assay’) utilises Chinese hamster ovary-K1 (CHO-K1) cells into which a stable (pCIN; BioTechniques 20 (1996): 102-110) vector containing either EP1 or EP3 cDNA has previously been transfected. Cells are cultured in suitable flasks containing culture medium such as DMEM:F-12 supplemented with 10% v/v foetal calf serum, 2 mM L-glutamine, 0.25 mg/ml geneticin, 100 μM flurbiprofen and 10 μg/ml puromycin.
# For assay, cells are harvested using a proprietary reagent that dislodges cells such as Versene. Cells are re-suspended in a suitable quantity of fresh culture media for introduction into a 384-well plate. Following incubation for 24 hours at 37° C. the culture media is replaced with a medium containing Fluo-4 and the detergent pluronic acid, and a further incubation takes place. Concentrations of compounds are then added to the plate in order to construct concentration-effect curves. This may be performed on the FLIPR in order to assess the agonist properties of the compounds. Concentrations of PGE2 are then added to the plate in order to assess the antagonist properties of the compounds.
# The data so generated may be analysed by means of a computerised curve-fitting routine. The concentration of compound that elicits a half-maximal inhibition of the calcium mobilisation induced by PGE2 (plC50) may then be estimated.
row,Ki,SMILES
1,> 1000 nM,"Cc1cc(-c2cnc(-c3cnccn3)[nH]2)nn1Cc1cc(Cl)ccc1OCc1ccccc1 [Example 482, 2-{4-[1-({5-chloro-2-[(phenylmethyl)oxy]phenyl}methyl)-5-methyl-1H-pyrazol-3-yl]-1H-imidazol-2-yl}pyrazine]"
2,> 1000 nM,"Cc1cc(-c2cnc(-c3ccncc3)[nH]2)nn1Cc1cc(Cl)ccc1OCc1ccccc1 [Example 483, 4-{4-[1-({5-Chloro-2-[(phenylmethyl)oxy]phenyl}methyl)-5-methyl-1H-pyrazol-3-yl]-1H-imidazol-2-yl}pyridine hydrochloride]"
3,> 1000 nM,"Cc1cc(-c2cnc(N3CCOCC3)[nH]2)nn1Cc1cc(Cl)ccc1OCc1ccccc1 [Example 485, 4-{4-[1-({5-Chloro-2-[(phenylmethyl)oxy]phenyl}methyl)-5-methyl-1H-pyrazol-3-yl]-1H-imidazol-2-yl}morpholine dihydrochloride]"

# Molecular target: T2, human prostanoid EP1 receptor (Homo sapiens, UniProt P34995)
# T2 construct: expressed in transfected cells; host or cells: CHO-K1 (membrane fraction)
# T2 sequence (P34995 1-402): T1 sequence (P34995 1-402)
# Assay: Binding assay for the human prostanoid EP1 receptor (competition with [3H]-PGE2)
# Details: negative logarithm10 of the IC50; competition with [3H]-PGE2, CHO-K1 cell membranes; averages of a number of experiments; read-out: pIC50 value (converted)
# Method: Competition assay using [^3H]-PGE2.
# Compound potencies are determined using a radioligand binding assay. In this assay compound potencies are determined from their ability to compete with tritiated prostaglandin E2 ([^3H]-PGE2) for binding to the human EP1 receptor.
# This assay utilises Chinese hamster ovary-K1 (CHO-K1) cells into which a stable vector containing the EP1 cDNA has previously been transfected. Cells are cultured in suitable flasks containing culture medium such as DMEM:F-12 supplemented with 10% v/v foetal calf serum, 2 mM L-glutamine, 0.25 mg/ml geneticin, 10 μg/ml puromycin and 10 μM indomethacin.
# Cells are detached from the culture flasks by incubation in calcium and magnesium free phosphate buffered saline containing 1 mM disodium ethylenediaminetetraacetic acid (Na2EDTA) and 10 μM indomethacin for 5 min. The cells are isolated by centrifugation at 250×g for 5mins and suspended in an ice cold buffer such as 50 mM Tris, 1 mM Na2EDTA, 140 mM NaCl, 10 μM indomethacin (pH 7.4). The cells are homogenised using a Polytron tissue disrupter (2×10s burst at full setting), centrifuged at 48,000×g for 20mins and the pellet containing the membrane fraction is washed (optional) three times by suspension and centrifugation at 48,000×g for 20mins. The final membrane pellet is suspended in an assay buffer such as 10 mM 2-[N-morpholino]ethanesulphonic acid, 1 mM Na2EDTA, 10 mM MgCl2 (pH 6). Aliquots are frozen at −80° C. until required.
# For the binding assay the cell membranes, competing compounds and [^3H]-PGE2 (3 nM final assay concentration) are incubated in a final volume of 100 μl for 30 min at 30° C. All reagents are prepared in assay buffer. Reactions are terminated by rapid vacuum filtration over GF/B filters using a Brandell cell harvester. The filters are washed with ice cold assay buffer, dried and the radioactivity retained on the filters is measured by liquid scintillation counting in Packard TopCount scintillation counter.
# The data are analysed using non linear curve fitting techniques to determine the concentration of compound producing 50% inhibition of specific binding (IC50).
row,IC50,SMILES
1,≤ 10 nM,"Cc1cc(NC(=O)OC(C)C)nn1Cc1cc(Br)ccc1OCc1ccc(F)cc1F [Example 7, 1-Methylethyl {1-[(5-bromo-2-{[(2,4-difluorophenyl)methyl]oxy}phenyl)methyl]-5-methyl-1H-pyrazol-3-yl}carbamate]"
2,≤ 10 nM,"Cc1cc(NC(=O)OC(C)(C)C)nn1Cc1cc(Br)ccc1OCc1ccc(Cl)cc1Cl [Example 8, 1,1-Dimethylethyl {1-[(5-bromo-2-{[(2,4-dichlorophenyl)methyl]oxy}phenyl)methyl]-5-methyl-1H-pyrazol-3-yl}carbamate]"
3,≤ 10 nM,"Cc1cc(NC(=O)OC2CCOCC2)nn1Cc1cc(Br)ccc1OCc1ccc(Cl)cc1Cl [Example 30, Tetrahydro-2H-pyran-4-yl {1-[(5-bromo-2-{[(2,4-dichlorophenyl)methyl]oxy}phe-nyl)methyl]-5-methyl-1H-pyrazol-3-yl}carbamate]"
4,≤ 10 nM,"Cc1cc(NC(=O)CC(C)C)nn1Cc1cc(Cl)ccc1OCC(C)C [Example 76, N-[1-({5-Chloro-2-[(2-methylpropyl)oxy]phenyl}methyl)-5-methyl-1H-pyrazol-3-yl]-3-methylbutanamide]"
5,≤ 10 nM,"Cc1cc(NC(=O)CC(C)(C)C)nn1Cc1cc(Cl)ccc1OCc1ccccc1 [Example 109, N-[1-({5-Chloro-2-[(phenylmethyl)oxy]phenyl}methyl)-5-methyl-1H-pyrazol-3-yl]-3,3-dimethylbutanamide]"
6,≤ 10 nM,"Cc1cc(NC(=O)C2CCCCC2)nn1Cc1cc(Cl)ccc1OCc1ccccc1 [Example 110, N-[1-({5-Chloro-2-[(phenylmethyl)oxy]phenyl}methyl)-5-methyl-1H-pyrazol-3-yl]cyclohexanecarboxamide]"
7,≤ 10 nM,"Cc1cc(NC(=O)Cc2ccccn2)nn1Cc1cc(Cl)ccc1OCc1ccc(Cl)cc1F [Example 118, N-{1-[(5-Chloro-2-{[(4-chloro-2-fluorophenyl)methyl]oxy}phenyl)methyl]-5-methyl-1H-pyrazol-3-yl}-2-(2-pyridinyl)acetamide]"
8,≤ 10 nM,"Cc1cc(NC(=O)CC(C)(C)C)nn1Cc1cc(Cl)ccc1OCc1ccc(F)cc1F [Example 132, N-{1-[(5-Chloro-2-{[(2,4-difluorophenyl)methyl]oxy}phenyl)methyl]-5-methyl-1H-pyrazol-3-yl}-3,3-dimethylbutanamide]"
9,≤ 10 nM,"Cc1cc(NC(=O)CC(C)(C)C)nn1Cc1cc(Cl)ccc1OCc1ccc(F)cc1Cl [Example 133, N-{1-[(5-Chloro-2-{[(2-chloro-4-fluorophenyl)methyl]oxy}phenyl)methyl]-5-methyl-1H-pyrazol-3-yl}-3,3-dimethylbutanamide]"
10,≤ 10 nM,"Cc1cc(NC(=O)CC(C)(C)C)nn1Cc1cc(Cl)ccc1OCc1ccc(Cl)cc1F [Example 136, N-{1-[(5-Chloro-2-{[(4-chloro-2-fluorophenyl)methyl]oxy}phenyl)methyl]-5-methyl-1H-pyrazol-3-yl}-3,3-dimethylbutanamide]"
11,≤ 10 nM,"Cc1cc(NC(=O)CC(C)(C)C)nn1Cc1cc(Cl)ccc1OCc1ccc(Cl)cc1 [Example 137, N-{1-[(5-Chloro-2-{[(4-chlorophenyl)methyl]oxy}phenyl)methyl]-5-methyl-1H-pyraozl-3-yl}-3,3-dimethylbutanamide]"
12,≤ 10 nM,"Cc1cc(NC(=O)CC2CCCCC2)nn1Cc1cc(Cl)ccc1OCc1ccccc1 [Example 154, N-[1-({5-Chloro-2-[(phenylmethyl)oxy]phenyl}methyl)-5-methyl-1H-pyrazol-3-yl]-2-cyclohexylacetamide]"
13,≤ 10 nM,"Cc1cc(NC(=O)c2cccc3ccccc23)nn1Cc1cc(Cl)ccc1OCc1ccccc1 [Example 160, N-[1-({5-Chloro-2-[(phenylmethyl)oxy]phenyl}methyl)-5-methyl-1H-pyrazol-3-yl]-1-naphthalenecarboxamide]"
14,≤ 10 nM,"Cc1cc(C(=O)Nc2c(F)cccc2F)nn1Cc1cc(Br)ccc1OCc1ccccc1 [Example 313, 1-({5-Bromo-2-[(phenylmethyl)oxy]phenyl}methyl)-N-(2,6-difluorophenyl)-5-methyl-1H-pyrazole-3-carobxamide]"
15,≤ 10 nM,"Cc1cc(C(=O)Nc2c(F)cccc2F)nn1Cc1cc(Br)ccc1OCc1ccc(F)cc1F [Example 319, 1-[(5-Bromo-2-{[(2,4-difluorophenyl)methyl]oxy}phenyl)methyl]-N-(2,6-difluorophenyl)-5-methyl-1H-pyrazole-3-carboxamide]"
16,≤ 10 nM,"Cc1cc(C(=O)Nc2ccc(CN(C)C)cc2)nn1Cc1cc(Cl)ccc1OCc1ccccc1 [Example 346, 1-({5-Chloro-2-[(phenylmethyl)oxy]phenyl}methyl)-N-{4-[(dimethylamino)methyl]phe-nyl}-5-methyl-1H-pyrazole-3-carboxamide hydrochloride]"
17,≤ 10 nM,"Cc1cc(-c2nnn[nH]2)nn1Cc1cc(Cl)ccc1OCc1ccccc1 [Example 353, 5-[1-({5-Chloro-2-[(phenylmethyl)oxy]phenyl}methyl)-5-methyl-1H-pyrazol-3-yl]-1H-tetrazole]"
18,≤ 10 nM,"Cc1cc(C(=O)NS(=O)(=O)c2ccccc2)nn1Cc1cc(Cl)ccc1OCc1ccccc1 [Example 355, 1-({5-Chloro-2-[(phenylmethyl)oxy]phenyl}methyl)-5-methyl-N-(phenylsulfonyl)-1H-pyrazole-3-carboxamide]"
19,≤ 10 nM,"Cc1noc(C)c1S(=O)(=O)NC(=O)c1cc(C)n(Cc2cc(Cl)ccc2OCc2ccccc2)n1 [Example 356, 1-({5-Chloro-2-[(phenylmethyl)oxy]phenyl}methyl)-N-[(3,5-dimethyl-4-isoxazolyl)sulfonyl]-5-methyl-1H-pyrazole-3-carboxamide]"
